Laboratory results published in ChEMBL document CHEMBL3045426, “Synthesis, Antiviral and Antibacterial Activities of Isatin Mannich Bases” (Med Chem Res, 2005).
Converted amounts (≈) assume the structure as drawn.

Tests used:
[1] = tested on: Citrobacter freundii; test: Antimicrobial activity against Citrobacter freundii after 18 to 20 hr by agar dilution method; type: functional
[2] = tested on: Priestia megaterium; test: Antimicrobial activity against Bacillus megaterium after 18 to 20 hr by agar dilution method; type: functional
[3] = tested on: Vibrio fluvialis; test: Antimicrobial activity against Vibrio fluvialis after 18 to 20 hr by agar dilution method; type: functional
[4] = tested on: Vibrio parahaemolyticus; test: Antimicrobial activity against Vibrio parahaemolyticus after 18 to 20 hr by agar dilution method; type: functional
[5] = tested on: Mycobacterium tuberculosis; test: Antimycobacterial activity against Mycobacterium tuberculosis H37Rv ATCC 27294 at 6.25 ug/ml by MABA; type: functional
[6] = tested on: Enterobacter; test: Antimicrobial activity against Enterobacter after 18 to 20 hr by agar dilution method; type: functional
[7] = tested on: Salmonella paratyphi; test: Antimicrobial activity against Salmonella enterica subsp. enterica serovar Paratyphi A after 18 to 20 hr by agar dilution method; type: functional
[8] = tested on: Pseudomonas aeruginosa; test: Antimicrobial activity against Pseudomonas aeruginosa after 18 to 20 hr by agar dilution method; type: functional
[9] = tested on: Proteus mirabilis; test: Antimicrobial activity against Proteus mirabilis after 18 to 20 hr by agar dilution method; type: functional
[10] = tested on: Salmonella typhi; test: Antimicrobial activity against Salmonella enterica subsp. enterica serovar Typhi after 18 to 20 hr by agar dilution method; type: functional
[11] = tested on: Vibrio cholerae; test: Antimicrobial activity against Vibrio cholerae 01 after 18 to 20 hr by agar dilution method; type: functional; conditions: 1
[12] = tested on: Human immunodeficiency virus 1; test: Antiviral activity against Human immunodeficiency virus 1 IIIB infected CEM cells assessed as protection against viral infection after 6 days by XTT assay; type: functional, CCRF-CEM; design: concentration or dose not given beside the values
[13] = tested on: Shigella sonnei; test: Antimicrobial activity against Shigella sonnei after 18 to 20 hr by agar dilution method; type: functional
[14] = tested on: Vibrio cholerae; test: Antimicrobial activity against Vibrio cholerae 0139 after 18 to 20 hr by agar dilution method; type: functional; conditions: 139
[15] = tested on: Salmonella enteritidis; test: Antimicrobial activity against Salmonella enterica subsp. enterica serovar Enteritidis after 18 to 20 hr by agar dilution method; type: functional
[16] = tested on: Klebsiella pneumoniae; test: Antimicrobial activity against Klebsiella pneumoniae after 18 to 20 hr by agar dilution method; type: functional
[17] = tested on: Escherichia coli; test: Antimicrobial activity against Escherichia coli NCTC 10418 after 18 to 20 hr by agar dilution method; type: functional
[18] = tested on: Proteus vulgaris; test: Antimicrobial activity against Proteus vulgaris after 18 to 20 hr by agar dilution method; type: functional
[19] = tested on: Human immunodeficiency virus 1; test: Antiviral activity against Human immunodeficiency virus 1 IIIB infected MT4 cells assessed as inhibition of virus-induced cytopathicity after 5 days by MTT assay; type: functional, organism-based; conditions: MT4, 120 h
[20] = tested on: Plesiomonas; test: Antimicrobial activity against Plesiomonas after 18 to 20 hr by agar dilution method; type: functional
[21] = tested on: Morganella morganii; test: Antimicrobial activity against Morganella morganii after 18 to 20 hr by agar dilution method; type: functional
[22] = Cytotoxicity against Homo sapiens (human) CEM cells after 5 days by MTT assay; type: cell-based; conditions: CEM cells (CCRF-CEM)
[23] = tested on: Vibrio mimicus; test: Antimicrobial activity against Vibrio mimicus after 18 to 20 hr by agar dilution method; type: functional
[24] = tested on: Human immunodeficiency virus 1; test: Antiviral activity against Human immunodeficiency virus 1 IIIB infected CEM cells assessed as inhibition of virus-induced cytopathicity after 6 days by XTT assay; type: functional, organism-based; conditions: CCRF-CEM, 144 h
[25] = tested on: Human immunodeficiency virus 1; test: Antiviral activity against Human immunodeficiency virus 1 IIIB infected MT4 cells assessed as protection against viral infection after 5 days by MTT assay; type: functional; design: concentration or dose not given beside the values
[26] = tested on: Edwardsiella tarda; test: Antimicrobial activity against Edwardsiella tarda after 18 to 20 hr by agar dilution method; type: functional
[27] = Cytotoxicity against Homo sapiens (human) HuH7 cells assessed as cell growth at 50 ug/ml after 3 days by Neutral red assay; type: cell-based, Huh-7; conditions: read-out: Activity
[28] = Cytotoxicity against Homo sapiens (human) MT4 cells after 5 days by MTT assay; type: cell-based
[29] = tested on: Shigella boydii; test: Antimicrobial activity against Shigella boydii after 18 to 20 hr by agar dilution method; type: functional
[30] = tested on: Klebsiella pneumoniae; test: Antimicrobial activity against Klebsiella pneumoniae subsp. ozaenae after 18 to 20 hr by agar dilution method; type: functional
[31] = tested on: Salmonella typhimurium; test: Antimicrobial activity against Salmonella enterica subsp. enterica serovar Typhimurium after 18 to 20 hr by agar dilution method; type: functional
[32] = tested on: Hepatitis C virus; test: Antiviral activity against Hepatitis C virus BM4-5 infected in Huh7 cells assessed as inhibition of viral RNA replication by phosphor screening method; type: functional, Hepacivirus hominis, Huh-7
[33] = tested on: Staphylococcus aureus; test: Antimicrobial activity against Staphylococcus aureus after 18 to 20 hr by agar dilution method; type: functional

Structure (SMILES)	MIC [1] [µg/mL]	MIC [2] [µg/mL]	MIC [3] [µg/mL]	MIC [4] [µg/mL]	MIC [6] [µg/mL]	MIC [7] [µg/mL]	MIC [8] [µg/mL]	MIC [9] [µg/mL]	MIC [10] [µg/mL]	MIC [11] [µg/mL]	MIC [13] [µg/mL]	MIC [14] [µg/mL]	MIC [15] [µg/mL]	MIC [16] [µg/mL]	MIC [17] [µg/mL]	MIC [18] [µg/mL]	MIC [20] [µg/mL]	MIC [21] [µg/mL]	MIC [23] [µg/mL]	MIC [26] [µg/mL]	other results
COc1cccc(N2CCN(CN3C(=O)/C(=N\c4ncc(Cc5cc(OC)c(OC)c(OC)c5)c(N)n4)c4cc(Cl)ccc43)CC2)c1	1250 (≈ 1900 µM)	1250 (≈ 1900 µM)	1250 (≈ 1900 µM)	2.44 (≈ 3.71 µM)	1250 (≈ 1900 µM)	156 (≈ 237 µM)	2500 (≈ 3800 µM)	2500 (≈ 3800 µM)	1250 (≈ 1900 µM)	1.22 (≈ 1.85 µM)	625 (≈ 950 µM)	312 (≈ 475 µM)	1250 (≈ 1900 µM)	625 (≈ 950 µM)	2500 (≈ 3800 µM)	1250 (≈ 1900 µM)	0.61 (≈ 0.927 µM)	2500 (≈ 3800 µM)	0.61 (≈ 0.927 µM)	1250 (≈ 1900 µM)	inhibition at 6.25 µg/mL [5]: 33%; Activity [12]: 21.93%; EC50 [19]: > 32.6 µg/mL; CC50 at 120 h [22]: 23.3 µg/mL (≈ 35.4 µM); EC50 [24]: > 23.3 µg/mL; Activity [25]: 10.7%; viability at 72 h, 50 ug/ml [27]: 71%; CC50 at 120 h [28]: 32.6 µg/mL (≈ 49.5 µM); MIC [29]: 0.61 µg/mL (≈ 0.927 µM); MIC [30]: 1250 µg/mL (≈ 1900 µM); MIC [31]: 2500 µg/mL (≈ 3800 µM); inhibition (INH) [32]: 100%; MIC [33]: 156 µg/mL (≈ 237 µM)
COc1c(N2CCNC(C)C2)c(F)cc2c(=O)c(C(=O)O)cn(C3CC3)c12 (stereo not drawn) [GATIFLOXACIN]	0.08 (≈ 0.213 µM)	0.08 (≈ 0.213 µM)	0.02 (≈ 0.0533 µM)	9.77 (≈ 26 µM)	0.02 (≈ 0.0533 µM)	0.02 (≈ 0.0533 µM)	0.15 (≈ 0.4 µM)	0.02 (≈ 0.0533 µM)	0.02 (≈ 0.0533 µM)	0.02 (≈ 0.0533 µM)	0.08 (≈ 0.213 µM)	0.02 (≈ 0.0533 µM)	0.02 (≈ 0.0533 µM)	0.08 (≈ 0.213 µM)	0.02 (≈ 0.0533 µM)	0.02 (≈ 0.0533 µM)	2.44 (≈ 6.5 µM)	0.02 (≈ 0.0533 µM)	0.15 (≈ 0.4 µM)	0.02 (≈ 0.0533 µM)	MIC [29]: 1.22 µg/mL (≈ 3.25 µM); MIC [30]: 0.08 µg/mL (≈ 0.213 µM); MIC [31]: 0.02 µg/mL (≈ 0.0533 µM); MIC [33]: 0.02 µg/mL (≈ 0.0533 µM)
COc1cc(Cc2cnc(/N=C3\C(=O)N(CN4CCN(c5ccccn5)CC4)c4ccc(Cl)cc43)nc2N)cc(OC)c1OC	625 (≈ 993 µM)	1250 (≈ 1990 µM)	1250 (≈ 1990 µM)	1.22 (≈ 1.94 µM)	1250 (≈ 1990 µM)	312 (≈ 497 µM)	1250 (≈ 1990 µM)	1250 (≈ 1990 µM)	1250 (≈ 1990 µM)	9.76 (≈ 15.5 µM)	1250 (≈ 1990 µM)	312 (≈ 497 µM)	1250 (≈ 1990 µM)	1250 (≈ 1990 µM)	1250 (≈ 1990 µM)	625 (≈ 993 µM)	9.76 (≈ 15.5 µM)	312 (≈ 497 µM)	1.22 (≈ 1.94 µM)	1250 (≈ 1990 µM)	inhibition at 6.25 µg/mL [5]: 23%; Activity [12]: 23.55%; EC50 [19]: > 39.2 µg/mL; CC50 at 120 h [22]: 29.4 µg/mL (≈ 46.7 µM); EC50 [24]: > 29.4 µg/mL; Activity [25]: 16.6%; viability at 72 h, 50 ug/ml [27]: 101%; CC50 at 120 h [28]: 39.2 µg/mL (≈ 62.3 µM); MIC [29]: 2.44 µg/mL (≈ 3.88 µM); MIC [30]: 625 µg/mL (≈ 993 µM); MIC [31]: 1250 µg/mL (≈ 1990 µM); inhibition (INH) [32]: 89%; MIC [33]: 1250 µg/mL (≈ 1990 µM)
COc1cc(Cc2cnc(/N=C3\C(=O)N(CN4CCN(C)CC4)c4ccc(Cl)cc43)nc2N)cc(OC)c1OC	1250 (≈ 2210 µM)	1250 (≈ 2210 µM)	1250 (≈ 2210 µM)	0.61 (≈ 1.08 µM)	312 (≈ 552 µM)	156 (≈ 276 µM)	1250 (≈ 2210 µM)	1250 (≈ 2210 µM)	1250 (≈ 2210 µM)	1.22 (≈ 2.16 µM)	1250 (≈ 2210 µM)	312 (≈ 552 µM)	1250 (≈ 2210 µM)	1250 (≈ 2210 µM)	1250 (≈ 2210 µM)	1250 (≈ 2210 µM)	4.88 (≈ 8.62 µM)	1250 (≈ 2210 µM)	1.22 (≈ 2.16 µM)	625 (≈ 1100 µM)	inhibition at 6.25 µg/mL [5]: 35%; Activity [12]: 21.09%; EC50 [19]: > 80.7 µg/mL; CC50 at 120 h [22]: 88 µg/mL (≈ 155 µM); EC50 [24]: > 88 µg/mL; Activity [25]: 48.6%; viability at 72 h, 50 ug/ml [27]: 83%; CC50 at 120 h [28]: 80.7 µg/mL (≈ 143 µM); MIC [29]: 19.5 µg/mL (≈ 34.5 µM); MIC [30]: 1250 µg/mL (≈ 2210 µM); MIC [31]: 1250 µg/mL (≈ 2210 µM); inhibition (INH) [32]: 71%; MIC [33]: 1250 µg/mL (≈ 2210 µM)
